Values quoted from earlier work, collected in paper PMC4474859 (PLoS ONE, 2015).

What was measured:
Impα/Impβ complex = conditions: full length protein vs NLS peptide
Text: (§1) Affinity assays between NLS peptides and Impα proteins have been performed based in indirect affinity measurements, using Surface Plasmon Resonance (SPR), and ITC [19, 38, 55]. Indirect affinity measurements between NLSs and Impα proteins reported dissociation constants in the nM range and permitted the comparison among these molecules. SPR experiments was only able to estimate the peptide-protein affinity in the μM range which was lately confirmed by ITC experiments.

MmImpα = conditions: in words
Text: as §1

binding site on MmImpα (MmImpα) | Substance | increase in affinity compared to just nucleoplasmin NLS peptide (Impα/Impβ complex)
– | full length nucleoplasmin protein: full length nucleoplasmin protein binds to Impα/Impβ complex | 2 fold
binds only the minor site of MmImpα | GSIIRKWN [hPLSCR4 NLS peptide] | –
